Assay results taken from patent US11160865B2, “Liquid pharmaceutical composition for the delivery of active ingredients” (NOVALIQ GMBH, priority 2010, dated 2021).
Where “and” joins values, the source holds several entries; their conditions need not be identical. Equal values may be shown once. Entries after “also recorded” stand apart in the source; their conditions may differ. Read-outs that look alike come from different tables or passages of the source.

Key:
rabbit eyes (cornea) [1] = assay: Ex-vivo eye irritation test (EVEIT), healing of corneal abrasion lesions; details: for Final size of corneal lesions: Example 2, after 3 days of hourly dosing 12 h/day, runs are replicates; for starting area of corneal lesions: Example 3; for outcome of corneal lesions: Example 3, after 2 or 3 days of exposure
Protocol: (§1) The physiological tolerability of F4H5 and of a mixture of 1 wt.-% ethanol in F4H5 was evaluated in an ex-vivo eye irritation test (EVEIT) using rabbit eyes taken from freshly sacrificed animals. The eyes were fastened in chambers coupled micropump systems which continuously supplied the eyes with cultivation medium (Minimal Essential Medium, MEM T031-05) without fetal calf serum. The vitality of the eyes was monitored by regularly measuring the concentration of lactate and glucose in the chamber eluate. The corneal surface of the eyes was damaged by abrasion, using a dental ceramic abrasive (638XF, Meisinger). For each eye, four lesions of 3.0 to 4.5 mm^2 were prepared.
(§2) To evaluate the effect of F4H5 and F4H5 with 1 wt.-% ethanol on the cornea, an amount of approx. 0.25 to 0.50 μl of the respective test substance was dropped onto the centre of a cornea once every hour over a period of 12 hours, followed by a 12 hour resting period in which the cornea was submersed in culture medium to simulate a closed lid during a night phase. […] Each test was performed over a period of 3 days. The effects were observed by optical coherence tomography (OCT), by digitally determining the dimensions of the lesions after staining with fluorescein, and finally by a histological evaluation of the corneal epithelium and endothelium at the end of each experiment.
(§3) Again, minimal essential medium (MEM) was included as negative control, benzalkonium chloride solution (0.01%) as positive control, and hyaluronic acid solution (0.1%) as a reference.

rabbit eyes (cornea) [2] = test system: rabbit eyes (cornea)
Protocol: as §1, §2, §3

[3] = Example 3, within 3 days, first set of experiments

Molecule	effect on healing of abraded corneal lesions (rabbit eyes (cornea) [1]; Example 2)	morphological and histological evaluation of cornea at end of test (rabbit eyes (cornea) [1]; Example 2)	Final size of corneal lesions (rabbit eyes (cornea) [1])	starting area of corneal lesions (rabbit eyes (cornea) [1]) [mm^2]	outcome of corneal lesions (rabbit eyes (cornea) [1])	area of corneal damage after treatment (rabbit eyes (cornea) [1]; [3]) [mm^2]	reduction of area of corneal damage (rabbit eyes (cornea) [1]; [3]) [%]	outcome of corneal lesions (rabbit eyes (cornea) [2])	starting area of corneal lesions (rabbit eyes (cornea) [2])	penetration into the cornea by OCT imaging (rabbit eyes (cornea) [1]; Example 2)	physiological tolerability (rabbit eyes (cornea) [1]; Example 2)
hyaluronic acid [HA]	Substantial healing	healed very well	0.36 mm^2 and 0.24 mm^2 and 0.00 mm^2	12.16	complete healing	0.32	97.4	–	–	–	–
CCCCCCCCC(F)(F)C(F)(F)C(F)(F)C(F)(F)C(F)(F)C(F)(F)F [F6H8, 1-perfluorohexyloctane]	–	–	–	–	–	–	–	complete remission	10.54-16.65 mm^2	–	–
benzalkonium chloride [BAC]	rapid growth of the lesions	complete disintegration of the corneal epithelium	–	11.23	complete epithelial loss	–	–	–	–	–	–
CCCCCC(F)(F)C(F)(F)C(F)(F)C(F)(F)F [F4H5, 1-perfluorobutylpentane]	positive effect on the healing of damaged cornea similar to that of hyaluronic acid; also recorded: Substantial healing	healed very well	0.19 mm^2 and 1.01 mm^2 and 0.06 mm^2	–	–	–	–	–	–	no indication of penetration	better tolerated than culture medium
